Laboratory results published in patent US5614520A, “2-arylthiazole derivatives and pharmaceutical composition thereof” (priority 1990, dated 1997).
“And” between values parts separate entries of the source, which are not always exact repeats. Equal values may be shown once.

Experiments:
[1] = target: T1, xanthine oxidase (Bos taurus, UniProt P80457); experiment: In vitro determination of xanthine oxidase (XOD) inhibition; format: biochemical; details: xanthine oxidase from butter milk, xanthine substrate, pH 7.4, 37° C.
T1 construct: purchased Sigma Chemical Company; host or cells: butter milk
T1 sequence (P80457 whole entry): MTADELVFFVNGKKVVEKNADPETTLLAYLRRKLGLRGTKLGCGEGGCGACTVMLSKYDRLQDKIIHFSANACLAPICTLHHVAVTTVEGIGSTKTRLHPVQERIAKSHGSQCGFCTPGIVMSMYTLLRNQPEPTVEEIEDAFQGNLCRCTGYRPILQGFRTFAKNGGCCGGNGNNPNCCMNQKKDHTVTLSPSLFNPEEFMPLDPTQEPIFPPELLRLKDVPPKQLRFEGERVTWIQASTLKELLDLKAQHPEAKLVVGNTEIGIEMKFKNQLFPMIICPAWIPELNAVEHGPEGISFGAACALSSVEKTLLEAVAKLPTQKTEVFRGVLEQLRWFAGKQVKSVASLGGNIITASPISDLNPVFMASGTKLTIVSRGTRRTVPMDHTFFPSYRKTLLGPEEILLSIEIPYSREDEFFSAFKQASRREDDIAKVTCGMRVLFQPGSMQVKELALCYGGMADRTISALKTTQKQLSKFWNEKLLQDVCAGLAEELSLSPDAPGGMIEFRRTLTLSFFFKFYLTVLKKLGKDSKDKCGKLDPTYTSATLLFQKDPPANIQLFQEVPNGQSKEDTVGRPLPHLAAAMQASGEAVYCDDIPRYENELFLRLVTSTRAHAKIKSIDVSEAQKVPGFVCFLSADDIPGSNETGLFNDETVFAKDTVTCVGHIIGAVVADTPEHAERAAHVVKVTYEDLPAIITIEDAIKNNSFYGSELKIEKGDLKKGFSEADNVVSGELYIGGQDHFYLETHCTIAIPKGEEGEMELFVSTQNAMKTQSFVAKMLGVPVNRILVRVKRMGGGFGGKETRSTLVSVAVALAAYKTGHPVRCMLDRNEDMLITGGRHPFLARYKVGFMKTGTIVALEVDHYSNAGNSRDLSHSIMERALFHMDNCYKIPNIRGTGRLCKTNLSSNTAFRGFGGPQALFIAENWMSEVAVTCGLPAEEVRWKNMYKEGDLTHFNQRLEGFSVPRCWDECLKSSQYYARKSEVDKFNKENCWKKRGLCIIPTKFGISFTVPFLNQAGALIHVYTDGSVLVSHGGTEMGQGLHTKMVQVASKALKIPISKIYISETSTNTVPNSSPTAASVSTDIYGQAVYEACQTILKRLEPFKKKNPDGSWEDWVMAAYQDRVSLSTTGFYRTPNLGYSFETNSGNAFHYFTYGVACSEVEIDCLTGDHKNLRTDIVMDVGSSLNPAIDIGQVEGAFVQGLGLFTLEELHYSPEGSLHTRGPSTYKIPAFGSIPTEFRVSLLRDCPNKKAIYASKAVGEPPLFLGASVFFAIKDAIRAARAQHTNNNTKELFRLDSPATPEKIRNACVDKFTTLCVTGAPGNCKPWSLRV
Method: (1) Preparation of test compounds:
Test compounds (compounds of Ex. No. listed in Table 1) were dissolved in dimethylsulfoxide and diluted with a 50 mM phosphate buffer to prepare aqueous solutions respectively having predetermined concentrations.
The inhibition rate was determined by the following equation: [formula]
The inhibition (%) was determined on each test compound prepared according to (1), and the IC50 value on the xanthine oxidase (XOD) inhibition was calculated from the value of inhibition.

[2] = system: serum uric acid; experiment: Determination of oral administration: lowering of serum uric acid in mice; format: in vivo, ICR male mice; details: Mus musculus; ICR male mice, oral, 1 mg/kg, 2 hours after administration, serum; read-out: Activity of lowering uric acid
Method: Test compounds suspended in a 5% gum arabic solution was forcibly administered by oral administration (compounds of Ex. No. of Table 2, dose: 1 mg/kg) to ICR male mice (age: about 7 weeks) (one group: 6 mice) by means of an oral probe. 2 hours after the administration, thoracotomy was conducted under etherization to collect blood from the heart, and serum was removed by a conventional process. The serum uric acid was measured by a biochemical automatic analyzer (Flexigem; Electro-Nucleonics, Inc.) by using a uric acid measurement kit (UA reagent; International Reagent) to determine the percentage of the lowering of uric acid. [formula]

[3] = system: interleukin 1 production; experiment: Interleukin 1 production inhibitory activity (LPS, abdominal exuded macrophage, ELISA); format: cell-based, BALB/c mouse; details: 10^-6 M, 1 μg/ml LPS, 24 hours, mouse macrophage
Method: 1 ml of a 5% oyster glycogen solution was intra-abdominally administered to a BALB/c mouse (male, 8 weeks in age), and 4 days after the administration, the infiltrated abdominal exuded cells were adhered to a plastic dish for 2 hours, and 1 μg/ml of LPS was allowed to act on macrophage (1×10^6 cells). Interleukin 1 extricated on the supernatant in 24 hours was measured by an ELISA technique. The test compound (compounds of Ex. No. described in Table 3) was prepared so as to have a concentration of 10^-6 M, and the interleukin 1 production inhibitory activity was, expressed in terms of the percentage inhibition based on the amount of production of the control.

[4] = system: collagen arthritis; experiment: Collagen arthritis inhibitory activity (bovine II type collagen in rats); format: in vivo, Lewis rats; details: 6 weeks; for Swelling: 5 times per week, right foot volume increase, control 45.5 ± 5.1; for Antibody titer of anti-collagen: serum, ELISA, control 2.04 ± 0.36
Method: An emulsion comprising a bovine II type collagen and incomplete Freund's adjuvant in a proportion of 1:1 were intradermally injected to Lewis rats (male, about 6 weeks in age) (one group: 8 […]) at the region of the back so that the amount of antigen was 2 mg/rat, thereby inducing arthritis. The compound of Ex. No. 35 was suspended in a 5% gum arabic solution, and orally administered 5 times per week in two groups of 10 mg/kg and 50 mg/kg from the sensitized day. Only the gum arabic solution was administered to the control. Then 6 weeks after the sensitization, the percentage increase in the volume of the right foot was measured and expressed in terms of the percentage swelling, and the anti-collagen antibody titer of the serum was measured by the ELISA technique.

IC50 [1] | SMILES | inhibition in vivo at 1 mg/kg [2] [%] | inhibition at 1 µM [3] [%] | Swelling ([4]; 10 mg/kg oral, *P < 0.05) [%] | Antibody titer of anti-collagen ([4]; 10 mg/kg oral) [μU/ml] | Swelling ([4]; 50 mg/kg oral, **P < 0.01) [%] | Antibody titer of anti-collagen ([4]; 50 mg/kg oral) [μU/ml]
6 nM and 6.2 nM | Cc1nc(-c2ccc(C(=O)c3ccccc3)cc2)sc1C(=O)O [Example 20, 2-(4-Benzoylphenyl)-4-methyl-5-thiazolecarboxylic acid] | 18 | 65 | 25.4 ± 5.3 | 1.88 ± 0.20 | 21.2 ± 4.2 | 1.68 ± 0.32
1.6 nM | Cc1nc(-c2ccc(N3CCCCC3)c([N+](=O)[O-])c2)sc1C(=O)O [Example 44, 4-methyl-2-(3-nitro-4-piperidinophenyl)-5-thiazolecarboxylic acid] | 83 | 22 |  |  |  | 
0.83 nM | Cc1ccc(C(=O)c2ccc(-c3nc(C)c(C(=O)O)s3)cc2)c(C)c1 [Example 75, 2-(4-(2,4-Dimethylbenzoyl)phenyl)-4-methyl-5-thiazolecarboxylic acid] | 33 | 48 |  |  |  | 
1.8 nM | Cc1nc(-c2ccc(N3CCOCC3)c([N+](=O)[O-])c2)sc1C(=O)O [Example 45, 4-methyl-2(4-morpholino-3-nitrophenyl)-5-thiazolecarboxylic acid] | 88 | 18 |  |  |  | 
5.7 nM | Cc1nc(-c2cc(C(F)(F)F)cc(C(F)(F)F)c2)sc1C(=O)O [Example 26, 2-(3,5-Bistrifluoromethylphenyl)-4-methyl-5-thiazolecarboxylic acid] | 63 | 57 |  |  |  | 
2.3 nM | CCOc1ccc(-c2nc(C)c(C(=O)O)s2)cc1Cl [Example 49, 2-(3-chloro-4-ethoxyphenyl)-4-methyl-5-thiazolecarboxylic acid] | 35 | 48 |  |  |  | 
3.4 nM | Cc1nc(-c2ccc(OCc3ccc(F)cc3)c(Cl)c2)sc1C(=O)O [Example 58, 2-(3-Chloro-4-(4-fluorobenzyloxy)phenyl)-4-methyl-5-thiazolecarboxylic acid] | 18 | 19 |  |  |  | 
4.8 nM | Cc1ccc(C(=O)c2ccc(-c3nc(C)c(C(=O)O)s3)cc2)cc1 [Example 74, 4-Methyl-2-(4-(4-methylbenzoyl)phenyl)-5-thiazolecarboxylic acid] | 39 | 52 |  |  |  | 
2.4 nM | Cc1nc(-c2ccc(OC(C)C)c(Cl)c2)sc1C(=O)O [Example 50, 2-(3-Chloro-4-isopropoxyphenyl)-4-methyl-5-thiazolecarboxylic acid] | 20 | 42 |  |  |  | 
